Blank lines part the entries; values can stand above or below the compound they belong to. Activity calls are given as the source filed them. For most assays here, no stated cut-off is given here; in the data, actives have a measured AC50 and inactives only a lower limit.
Experiments:
[1] = NIH/3T3 fibroblast cytotoxicity, dose response, cytotoxicity control, cell-based, plate reader, dry powder, set 2 (AID 652280); format: functional; conditions: NIH3T3
[2] = NIH/3T3 fibroblast cytotoxicity, dose response, cytotoxicity control, cell-based, dry powder samples (AID 651844); format: functional; conditions: NIH3T3
[3] = target: Potassium channel subfamily K member 3 (Homo sapiens, UniProt O14649); test: TASK1 (KCNK3) potassium channel inhibitors, SAR follow-up, CHO cells, FluxOR thallium flux (AID 652212); format: functional
[4] = target: Potassium channel subfamily K member 3 (Rattus norvegicus, UniProt O54912); test: SAR analysis for the identification of selective inhibitors of the two-pore domain potassium channel TASK1(KCNK3):Automated Electrophysiology.; format: functional
[5] = HEK293 cell cytotoxicity, dose response, cytotoxicity control, cherry-picks, set 5 (AID 1053117); format: functional, cell-based
[6] = HepG2 cell cytotoxicity, dose response, cytotoxicity control, cherry-picks, set 5 (AID 1053118); format: functional, cell-based
[7] = inhibitors of fibronectin matrix deposition, dose response, AH1F cells, Alexa488-FN fluorescence, cherry-picks (AID 1035475); format: functional, cell-based
HeLa = test: HeLa cell cytotoxicity, dose response, cytotoxicity control, ATP luminescence, cherry-pick samples (AID 687004); format: functional, cell-based; conditions: Homo sapiens
[8] = HEK293 Cytotoxicity Assay Measured in Cell-Based System Using Plate Reader - 7071-01_Inhibitor_Dose_CherryPick_Activity_Set2.; format: functional
HEK293 = test: HEK293T cell cytotoxicity, dose response, cytotoxicity control, ATP luminescence, cherry-pick samples (AID 687005); format: functional, cell-based; conditions: Homo sapiens;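 further: cells exposed to compound for 48 hours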
[9] = A375 melanoma cell viability loss, dose response, counter-screen for MITF inhibitor project, CellTiter-Glo luminescence, dry powder, set 4 (AID 624364); format: functional, cell-based; conditions: A-375;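 further: A375 melanoma cells are MITF independent so this is a counter screen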
[10] = A375 melanoma cell cytotoxicity, dose response, counter-screen for MITF inhibitor project, CellTiter-Glo luminescence, dry powder, set 2 (AID 624489); format: functional, cell-based; conditions: A-375;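 further: actives are compounds lowering A375 viability meaning general cytotoxicity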
[11] = A549 cell cytotoxicity, dose response, cytotoxicity control, cherry-picks, 26 µM top dose (AID 1053119); format: functional, cell-based
[12] = target: T1, Scavenger receptor class B member 1 (Mus musculus, UniProt Q61009); test: inhibitors of SR-BI dependent HDL uptake, dose response, ldlA[mSR-BI] CHO cells, fluorescence plate reader, dry powder, set 9 (AID 623880); format: functional, cell-based
[13] = target: T1, Scavenger receptor class B member 1; test: inhibitors of SR-BI-mediated HDL uptake, dose response, cell-based, ldlA[mSR-BI] CHO, DiI fluorescence, dry powder, set 10 (AID 624029); format: functional
[14] = HepG2 cell cytotoxicity, dose response, cytotoxicity control, ATP luminescence, cherry-pick, set 6 (AID 1053125); format: functional, cell-based
cells = conditions: A549

T1 sequence (Q61009 whole entry): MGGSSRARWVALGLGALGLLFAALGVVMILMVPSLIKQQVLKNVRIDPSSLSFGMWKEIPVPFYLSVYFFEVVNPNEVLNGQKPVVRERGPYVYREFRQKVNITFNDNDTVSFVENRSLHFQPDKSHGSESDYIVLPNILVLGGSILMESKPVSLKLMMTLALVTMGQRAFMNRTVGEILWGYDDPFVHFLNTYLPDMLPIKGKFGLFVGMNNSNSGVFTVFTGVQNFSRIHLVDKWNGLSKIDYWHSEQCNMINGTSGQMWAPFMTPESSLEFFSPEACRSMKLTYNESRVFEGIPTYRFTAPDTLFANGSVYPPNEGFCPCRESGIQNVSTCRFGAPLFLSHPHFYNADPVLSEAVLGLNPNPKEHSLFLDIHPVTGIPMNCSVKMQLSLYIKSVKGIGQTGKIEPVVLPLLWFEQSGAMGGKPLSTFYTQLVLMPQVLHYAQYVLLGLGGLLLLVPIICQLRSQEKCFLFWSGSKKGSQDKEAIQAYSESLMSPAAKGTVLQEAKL
Sequence of Potassium channel subfamily K member 3 (Homo sapiens, UniProt O14649) (O14649 whole entry, the tested form may be a part): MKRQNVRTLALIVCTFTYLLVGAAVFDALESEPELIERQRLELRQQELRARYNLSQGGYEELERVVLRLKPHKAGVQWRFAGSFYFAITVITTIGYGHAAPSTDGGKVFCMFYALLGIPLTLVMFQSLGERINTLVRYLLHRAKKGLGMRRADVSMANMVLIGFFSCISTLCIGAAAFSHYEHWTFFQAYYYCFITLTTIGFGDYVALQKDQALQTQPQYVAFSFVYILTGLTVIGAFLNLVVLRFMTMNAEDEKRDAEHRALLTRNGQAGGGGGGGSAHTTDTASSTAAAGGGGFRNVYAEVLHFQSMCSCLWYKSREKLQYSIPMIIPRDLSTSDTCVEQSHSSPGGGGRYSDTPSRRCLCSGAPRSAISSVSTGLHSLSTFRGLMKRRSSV
Sequence of Potassium channel subfamily K member 3 (Rattus norvegicus, UniProt O54912) (O54912 whole entry, the tested form may be a part): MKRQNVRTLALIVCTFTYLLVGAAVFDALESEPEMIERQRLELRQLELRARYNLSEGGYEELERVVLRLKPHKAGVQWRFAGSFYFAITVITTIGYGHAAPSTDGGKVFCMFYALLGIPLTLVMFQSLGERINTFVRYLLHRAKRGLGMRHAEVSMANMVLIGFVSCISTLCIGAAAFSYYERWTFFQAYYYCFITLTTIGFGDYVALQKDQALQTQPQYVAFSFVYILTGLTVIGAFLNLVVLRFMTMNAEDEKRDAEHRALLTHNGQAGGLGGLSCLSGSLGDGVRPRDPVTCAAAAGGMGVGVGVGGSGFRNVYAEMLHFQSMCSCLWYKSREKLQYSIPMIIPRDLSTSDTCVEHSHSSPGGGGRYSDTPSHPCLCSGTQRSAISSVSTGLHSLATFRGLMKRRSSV

SMILES: CC(C)N1C[C@H](C)[C@@H](CN(C)Cc2ccc(Oc3ccccc3)cc2)Oc2c(NC(=O)C3CCN(C)CC3)cccc2C1=O
- AC50 [1]: 8.58 µM (active)
- AC50 [2]: 8.58 µM (active)

- IC50 [3]: 0.162 µM (active)
- IC50 [4]: 2.14 µM (active)
SMILES: Cc1cccc(C(=O)Nc2cccc(NC(=O)c3ccncc3)c2)c1

SMILES: O=S(=O)(c1ccccc1F)N1CC[C@@H]2[C@@H](CO)Nc3ccc(-c4cccc(F)c4)cc3[C@@H]21
- AC50 [5]: > 52 µM (inactive)
- AC50 [6]: 32.6 µM (active)
- AC50 [7]: 39.9 µM (active)

SMILES: CC(C)CC#Cc1ccc2c(c1)O[C@H](CN(C)C(=O)C1CCC1)[C@@H](C)CN([C@@H](C)CO)S2(=O)=O
- AC50 (HeLa): > 52 µM (inactive)
- AC50 [8]: 15.8 µM (active)
- AC50 (HEK293): 15.8 µM (active)

SMILES: C=CCNC1=C(N2CCN(C)CC2)C(=O)c2ccccc2C1=O
- AC50 [9]: 34.4 µM (active)
- AC50 [10]: 15.9 µM (active)

SMILES: COc1ccc(Cl)cc1NC(=O)CSc1nc(Nc2ccccc2)nc(N2CCOCC2)n1
- AC50 [11]: > 52 µM (inactive)
- AC50 [7]: 64.2 µM (active)

- AC50 [12]: 0.0686 µM (active)
- AC50 [13]: 0.0616 µM (active)
SMILES: C[C@@H]1CN([C@H](C)CO)C(=O)c2cc(NC(=O)C3CCCCC3)ccc2O[C@H]1CN(C)S(=O)(=O)c1ccc(Cl)cc1

SMILES: CCOc1ccc2nc(NCCCNS(=O)(=O)c3ccc(F)cc3)c(C#N)cc2c1
- AC50 [14]: > 52 µM (inactive)

SMILES: Cc1noc(C)c1-c1ccc(C(=O)NCCc2ccccc2)c2occc12
- AC50 (cells): > 52 µM (inactive)

From ChEMBL document CHEMBL1201862, “PubChem BioAssay data set” (2004)
